Measured values published in patent US20080260650A1, “Methods of Detection and Therapy of Inflamed Tissues Using Immune Modulation” (THE GENERAL HOSPITAL Corporation, priority 2004, published 2008).

Test system: infected lesion (Candida albicans, left thigh)
Format: in vivo, mice (C57/BL)
Details: Candida-inoculated mice, day 8; GMCSF intramuscularly 3 days before PET; FDG 2 mCi/Kg via tail vein, PET 3 hours later; p<0.05 vs pre-GMCSF
Procedure: Candida albicans was suspended in saline to achieve a concentration of 2.5×10^9 yeast cells/ml. Three mice (C57/BL, Jackson Laboratories, Bar Harbor, Me.) were injected intramuscularly in the left thigh with 5×10^8 Candida albicans cells suspended in 0.2 ml of saline. The right thigh was injected with 0.2 ml of saline as a control.
Imaging of the animals was performed on days 5 and 8 after Candida inoculation. […] GMCSF was administered intramuscularly immediately after the first PET images were obtained (3 days prior to the second PET imaging).

GMCSF: granulocyte-macrophage colony stimulating factor, immune modulator; FDA approved under the tradename Leukine
FDG uptake within the infected lesion, post-GMCSF: 8150 nCi/cc
